Experimental data taken from patent US9168259B2 (GRÜNENTHAL GMBH, priority 2010, dated 2015).

Biological target: T1, KCNQ2/3 channels (Homo sapiens, UniProt O43525+O43526)
T1 construct: expressed in transfected cells
Assay: Fluorescence assay using a voltage sensitive dye (fluorimetry)
Type: cell-based
Details: CHO-K1 cells expressing KCNQ2/3; for Emax: CHO-K1, plateau effect relative to saturated retigabine (50 μM) = 100%, negative values = antagonistic, read-out: Fluorimetry % efficacy (retigabine = 100%); for EC50: IC50 where % efficacy is negative, read-out: Fluorimetry EC50/IC50

T1 sequence (O43526 whole entry): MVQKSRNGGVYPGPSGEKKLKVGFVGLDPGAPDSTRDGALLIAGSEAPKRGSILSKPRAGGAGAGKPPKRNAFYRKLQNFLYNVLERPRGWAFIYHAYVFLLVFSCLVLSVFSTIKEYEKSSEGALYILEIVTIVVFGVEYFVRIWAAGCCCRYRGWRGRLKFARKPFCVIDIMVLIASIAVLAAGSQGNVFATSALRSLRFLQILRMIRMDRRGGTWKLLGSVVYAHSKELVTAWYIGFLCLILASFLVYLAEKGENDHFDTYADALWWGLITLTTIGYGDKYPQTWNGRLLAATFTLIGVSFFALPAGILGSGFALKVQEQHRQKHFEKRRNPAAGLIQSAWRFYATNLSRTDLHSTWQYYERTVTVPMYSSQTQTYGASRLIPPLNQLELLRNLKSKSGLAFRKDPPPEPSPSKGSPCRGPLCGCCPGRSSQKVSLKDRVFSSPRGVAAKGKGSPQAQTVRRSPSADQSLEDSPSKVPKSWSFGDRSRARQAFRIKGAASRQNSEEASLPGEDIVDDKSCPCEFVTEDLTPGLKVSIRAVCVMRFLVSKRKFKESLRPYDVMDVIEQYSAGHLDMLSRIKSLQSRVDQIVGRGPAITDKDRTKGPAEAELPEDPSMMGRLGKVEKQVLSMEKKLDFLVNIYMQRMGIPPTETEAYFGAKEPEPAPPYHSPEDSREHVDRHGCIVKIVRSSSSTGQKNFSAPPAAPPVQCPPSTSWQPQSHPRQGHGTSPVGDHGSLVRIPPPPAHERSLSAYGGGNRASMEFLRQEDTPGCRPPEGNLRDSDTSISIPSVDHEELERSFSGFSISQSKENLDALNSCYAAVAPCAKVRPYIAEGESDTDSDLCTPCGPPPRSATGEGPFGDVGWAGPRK
T1 sequence (O43525 whole entry): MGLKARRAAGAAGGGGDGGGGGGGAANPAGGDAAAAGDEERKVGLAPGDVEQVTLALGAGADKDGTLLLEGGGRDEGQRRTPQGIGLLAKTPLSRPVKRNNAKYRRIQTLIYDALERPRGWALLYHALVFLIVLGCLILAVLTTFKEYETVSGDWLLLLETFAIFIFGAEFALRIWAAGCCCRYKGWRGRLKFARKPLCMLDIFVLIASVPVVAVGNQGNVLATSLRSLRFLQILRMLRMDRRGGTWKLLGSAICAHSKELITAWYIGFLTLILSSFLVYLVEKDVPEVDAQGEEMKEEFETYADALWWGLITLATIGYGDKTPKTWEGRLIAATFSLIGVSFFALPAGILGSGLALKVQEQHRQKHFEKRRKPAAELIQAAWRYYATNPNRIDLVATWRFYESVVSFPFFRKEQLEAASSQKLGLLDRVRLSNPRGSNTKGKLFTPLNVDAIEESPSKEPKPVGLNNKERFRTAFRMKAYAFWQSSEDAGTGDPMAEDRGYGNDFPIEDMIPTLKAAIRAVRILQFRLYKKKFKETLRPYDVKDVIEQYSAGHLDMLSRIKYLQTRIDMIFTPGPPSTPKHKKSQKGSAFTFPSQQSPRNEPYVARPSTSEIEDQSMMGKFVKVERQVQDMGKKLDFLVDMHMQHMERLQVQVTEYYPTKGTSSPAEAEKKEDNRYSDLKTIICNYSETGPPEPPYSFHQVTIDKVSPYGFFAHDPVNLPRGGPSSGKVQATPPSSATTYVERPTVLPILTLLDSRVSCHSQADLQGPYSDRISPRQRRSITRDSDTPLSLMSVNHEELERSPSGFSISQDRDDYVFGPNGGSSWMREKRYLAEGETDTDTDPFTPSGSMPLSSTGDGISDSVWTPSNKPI

Row | Emax [%] | EC50 [µM] | Compound
1 | 148 | 0.056 | CCSc1nc(N2CCOC[C@H]2C)cc(C)c1C(=O)NCc1ccc(C(F)(F)F)cc1 [Example 237, 2-Ethylsulfanyl-4-methyl-6-[(3R)-3-methyl-morpholin-4-yl]-N-[[4-(trifluoromethyl)-phenyl]-methyl]-pyridine-3-carboxylic acid amide]
2 | 221 | 0.101 | CCSc1nc(N2CCOC[C@H]2COC)cc(C)c1C(=O)NCc1ccc(Cl)cc1 [Example 256, N-[(4-Chlorophenyl)-methyl]-2-ethylsulfanyl-6-[(3R)-3-(methoxymethyl)-morpholin-4-yl]-4-methyl-pyridine-3-carboxylic acid amide]
3 | 157 | 0.585 | COCCSc1nc(N2CCOCC2)cc(C)c1C(=O)NCc1cccc(F)c1 [Example 63, N-[(3-Fluorophenyl)-methyl]-2-(2-methoxy-ethylsulfanyl)-4-methyl-6-morpholin-4-yl-pyridine-3-carboxylic acid amide]
4 | 127 | 0.117 | CCOc1nc(N2CCOCC2)cc(C)c1C(=O)NCc1ccc(F)c(F)c1 [Example 91, N-[(3,4-Difluoro-phenyl)-methyl]-2-ethoxy-4-methyl-6-morpholin-4-yl-pyridine-3-carboxylic acid amide]
5 | 167 | 0.157 | CSc1nc(N2CCOCC2)cc(C)c1C(=O)NCc1cc(F)cc(F)c1 [Example 156, N-[(3,5-Difluoro-phenyl)-methyl]-4-methyl-2-methylsulfanyl-6-morpholin-4-yl-pyridine-3-carboxylic acid amide]
6 | 128 | 0.07 | CCSc1nc(N2CCOCC2)cc(C)c1C(=O)NCc1cccc(C(F)(F)F)c1 [Example 59, 2-Ethylsulfanyl-4-methyl-6-morpholin-4-yl-N-[[3-(trifluoromethyl)phenyl]methyl]-pyridine-3-carboxylic acid amide]
7 | 198 | 1.75 | CCSc1nc(N2CCOCC2)cc(C)c1C(=O)NCCC(O)C(C)C (stereo not drawn) [Example 286, 2-Ethylsulfanyl-N-(3-hydroxy-4-methyl-pentyl)-4-methyl-6-morpholin-4-yl-pyridine-3-carboxylic acid amide]
8 | 70 | – | CCSc1nc(N2CCOCC2)cc(C)c1C(=O)NCCCC#N [Example 160, N-(3-Cyano-propyl)-2-ethylsulfanyl-4-methyl-6-morpholin-4-yl-pyridine-3-carboxylic acid amide]
9 | – | 0.156 | Cc1cc(N2CCOCC2)nc(C(C)C)c1C(=O)NCCC(O)C(C)(C)C (racemic) [Example X5, N-(3-Hydroxy-4,4-dimethyl-pentyl)-2-isopropyl-4-methyl-6-morpholin-4-yl-pyridine-3-carboxylic acid amide]
10 | 242 | 0.018 | Cc1cc(N2CCOCC2)nc(C(C)C)c1C(=O)NCCCC(C)(C)C [Example 314, N-(4,4-Dimethyl-pentyl)-2-isopropyl-4-methyl-6-morpholin-4-yl-pyridine-3-carboxylic acid amide]
11 | 183 | 0.069 | CCSc1nc(N2CCOC[C@H]2C)cc(C)c1C(=O)NCc1ccc(Cl)cc1 [Example 207, N-[(4-Chlorophenyl)-methyl]-2-ethylsulfanyl-4-methyl-6-[(3R)-3-methyl-morpholin-4-yl]-pyridine-3-carboxylic acid amide]
12 | 242 | 0.049 | CCOc1nc(N2CCOC[C@H]2C)cc(C)c1C(=O)NCCCC(C)(C)C [Example 187, N-(4,4-Dimethyl-pentyl)-2-ethoxy-4-methyl-6-[(3R)-3-methyl-morpholin-4-yl]-pyridine-3-carboxylic acid amide]
13 | 220 | 0.219 | CCN(C)c1nc(N2CCOCC2)cc(C)c1C(=O)NCc1ccc(F)c(F)c1 [Example 203, N-[(3,4-Difluoro-phenyl)-methyl]-2-(ethyl-methyl-amino)-4-methyl-6-morpholin-4-yl-pyridine-3-carboxylic acid amide]
